Test results published in patent US10556926B2, “Synthetic artificial peptides with antimicrobial effect” (priority 2014, dated 2020).
Read-outs that look alike come from different tables or passages of the source. No end group written: not given here.

Columns and labels:
E. coli ML-35p [1] = test: Kinetics of permeabilization of the outer bacteria membrane (nitrocefin); assay type: cell-based, Escherichia coli
Procedure: (§1) The ability of the antimicrobial peptides for the respective permeabilization of the outer and inner bacteria membrane was tested by way of example on E. coli ML-35p (made available by Dr. R. E. Lehrer, Center for Health Sciences, Los Angeles, Calif., USA). The peptides were incubated in serial dilution with E. coli ML-35p and the time-dependent release of cell-internal components was measured in a slightly modified protocol according to Ericsson et al. (2002). For this purpose, the bacteria were cultured in Luria-Bertani (LB) medium with 100 μg/ml ampicillin (Fluka, Taufkirchen, Germany) until reaching an optical density of 0.4 at 600 nm wavelength. Then, the cells were washed three times by centrifugation at 4000 g for 1 min and subsequent up-take in 10 mM HEPES buffer pH 7.2. Finally, the cells were diluted to an optical density of 0.3 at 600 nm wavelength. To measure the permeabilization of the outer membrane, nitrocefin (Merck, Darmstadt, Germany) was diluted in HEPES buffer to a concentration of 60 μg/ml. The antimicrobial peptides were diluted in HEPES buffer to an end concentration of 12 μM, 24 μM, 48 μM and 96 μM end concentration. In the next step, 50 μl of nitrocefin were admixed with 50 μl of antimicrobial peptide and 50 μl of bacteria suspension such that an end concentration of 20 μg/ml of nitrocefin, 4 μM to 32 μM of antimicrobial peptide and bacteria with an optical density of 0.1 to 600 nm were present. The samples were mixed and the absorption at 500 nm wavelength was measured directly over a period of at least 90 min at 37° C. with regular shaking in a FLUOstar omega Microplate Reader (BMG Labtech, Ortenberg, Germany). The investigation of the permeabilization of the inner membrane was carried out in the same way except that instead of the nitrocefin accordingly 0-nitrophenyl-beta-D-galactoside (ONPG, Sigma-Aldrich) in an end concentration of 100 μg/ml was used and the absorption change was determined at a wavelength of 420 nm. The control used was samples without antimicrobial peptide, the positive control used for the membrane permeabilization was polymyxin B (Sigma-Aldrich) in an end concentration of 5 μM. For the data evaluation, firstly the measurement values of the corresponding negative controls were deducted from the measurement values of the samples, and the difference was then divided by the corresponding measurement values of the permeabilization control. Then, a graphical evaluation was carried out, the calculated values being plotted against the peptide concentration and being fitted with the help of the Origin Pro 8.1 G Software (OriginLab) according to a sigmoidal model.
(§2) As comparison parameter between the peptides, the times were ascertained from this at which 50% of the final signal level was reached. For this purpose, the equation with the percentage membrane permeabilization y, the time x in minutes, the lower plateau A1, the upper plateau A2, the point of inflection Log X0 and the Hill incline p
(§3) [formula] was used. The calculation of the parameters A1, A2, Log X0 and p was performed by the program by reference to the compensating curve. Further resolution of equation 5.1 for the case y=50 then produced for x the desired time at which the half-maximum signal level was reached.

[2] = system: human histiocytic lymphoma cell line U937; test: Long-term growth inhibition, minimum toxic concentration (MTC)
Procedure: The cytotoxic potential of the antimicrobial peptides was determined by way of example by reference to the human histiocytic lymphoma cell line U937 (DSMZ). The influence of the peptides on the permeability of the cell membrane and their longer-term growth-inhibiting effect was investigated. 15 ml of RPMI 1640 medium with 2 mM glutamine and 10% FCS (Biochrom, Berlin, Germany) were inoculated with 1·10^5 cells per ml and cultivated for three days at 37° in T75 cell culture bottles (TPP, Trasadingen, Switzerland) with constant gassing with 5% CO2 in a climatically controlled chamber. The medium was admixed with 10 U/ml penicillin and […] streptomycin (both AppliChem, Darmstadt, Germany) to avoid bacterial contaminations, with no further antibiotics being added during the subsequent recultivation. Before each experiment, the cells were washed by centrifugation at 100 g for five minutes and subsequent resuspension in RPMI 1640 medium with 2 mM glutamine and 10% FCS in each case two times and adjusted to a concentration of 1·10^5 cells per ml. Finally, in each case 100 μl of the U937 cells were transferred to the reaction chambers of a sterile 96-well polypropylene microtiter plate and admixed with in each case 100 μl of a prediluted antimicrobial peptide in RPMI 1640 medium without antibiotic addition, such that end concentrations of in each case 5·10^4 cells per ml at peptide concentrations between 0.25 μM and 64 μM were present. The negative control used was samples without antimicrobial peptide, while Triton X-100 (AppliChem) was used in an end concentration of 5% as positive control for the permeabilization. The samples were cultivated for two hours at 37° C. and with continuous gassing with 5% CO2 in a climatically controlled chamber. Then, in each case 100 μl of each sample were removed and transferred to new sterile microtiter plates for determining the direct membrane damage. The remaining 100 μl of the samples were cultivated for at least four further days.
For this purpose, 10 μl of lysing solution were added to in each case 100 μl of cell suspension and incubated for 60 minutes at 37° C. Then, the cell culture supernatants were investigated as described above. The lowest peptide concentration at which complete suppression of the cell growth was established after four days was stipulated as the minimum toxic concentration (MTC).

E. coli ML-35p [3] = test: Kinetics of permeabilization of the inner bacteria membrane (ONPG); assay type: cell-based, Escherichia coli
Procedure: as §1, with “model. As representative examples, FIGS. 4 and 5 show the graphical evaluation for the kinetic investigation of the permeabilization of the outer E. coli bacteria membrane for the peptides N4 (FIG. 4) and O1 (FIG. 5).” for “model.”
as §2, §3

Staphylococcus xylosus = conditions: 18 h
Procedure: (§4) The minimum inhibitory concentration (MIC) of the peptides was carried out by way of example against gram(−) E. coli DH5α (and gram(+) Staphylococcus xylosus (both Deutsche Sammlung von Mikroorganismen and Zellkulturen, DSMZ) in a standardized microdilution method according to the general guidelines of the CLSI (Clinical and Laboratory Standards Institute 2006) and EUCAST (European Committee for Antimicrobial Susceptibility Testing of the European Society of Clinical Microbiology and Infectious Diseases 2003) with slight adaptations to the investigation of cationic antimicrobial peptides (Wiegand et al. 2008). The bacteria cells were cultivated in Mueller-Hinton-Boullion (MHB) to an optical density of 0.4 to 0.6 at 600 nm wavelength, corresponding to about 4·10^8 bacteria per ml. Then, the bacteria cultures were diluted to a bacteria concentration of about 1·10^5 bacteria per ml in sterile MHB. Using the peptides, series of 2-fold dilutions starting at 128 μM to the smallest dilution of 0.5 μM in MHB were prepared. The peptide dilutions were mixed with the dilute bacteria cultures in a […] in the chambers of a 96-well polypropylene microtiter plate (Starlab, Hamburg, Germany), so that the peptides were present in an end concentration between 64 μM and 0.25 μM at a bacteria concentration of 5·10^4 bacteria/ml. Sterile MHB served as negative control, and the positive control used as the corresponding bacteria concentration in MHB without the addition of peptide. The microtiter plates were incubated for 18 hours at 37° C. with shaking at 120 rpm in a climatically controlled chamber. After the incubation, the bacteria concentration was determined by renewed absorption measurement at a wavelength of 600 nm.

E. coli DH5α = conditions: DH5α, 18 h
Procedure: as §4

[4] = system: human histiocytic lymphoma cell line U937; test: Cytotoxicity, direct membrane damage (CytoTox 96), LD50; assay type: cell-based; conditions: U937, two hours at 37° C., 0.25-64 μM
Procedure: The direct membrane damage was investigated with the help of the CytoTox 96 Non-Radioactive Cytotoxicity Assay (Promega, Mannheim, Germany). For this purpose, the cells were sedimented at 100 g for ten minutes at 4° C., and 50 μl of the resulting culture supernatant were added to 50 μl of the CytoTox substrate mix. After an incubation time of 30 minutes in the dark at room temperature, 50 μl of the CytoTox stopping solution were added to the sample and the absorption was measured at 490 nm. To determine the LD50 value, the measurement value of the negative control was deducted from the absorption values and divided by the measurement value of the permeabilization control. The calculated values were plotted graphically against the peptide concentration and fitted using the Origin pro 8.1 G Software according to a sigmoidal model and the LD50 values were ascertained from this. The calculation was carried out analogously to example 5 by reference to the solution of equation 5.1 for the case y=50, where y in this case corresponds to the relative cytotoxicity in percent and x corresponds to the peptide concentration in μM. Representative graphical evaluations of LD50 values are shown in FIG. 6 by reference to the measurement results for the reference peptides BMAP-27, protamine and KL-helix, and also the peptide O1 according to the invention.

human cell line U937 = test: Mixed culture experiment (bacterially contaminated cell culture), eukaryotic cells; assay type: cell-based; conditions: 25 and 50 μM peptide, two hours, with S. xylosus
Procedure: Destruction of the bacteria membranes by the antimicrobial peptides was investigated in a flow cytometric method with the help of a living/dead staining method in combination with an internal calibration and counting system. For this purpose, SYBR Green I (Sigma-Aldrich) was used as total staining and propidium iodide (Sigma-Aldrich) was used as contrast staining for membrane-damaged bacteria. […] The flow analysis was carried out on a Cytomics FC500 Instrument (Beckmann Coulter, Munich, Germany) equipped with an argon laser (488 nm) and the corresponding emission filters for SYBR Green I (525 nm) and propidium iodide (620 nm). […] Then, the mixture was incubated for 10 min in the dark at room temperature and then measured by flow cytometry. The number of events in each gate was captured and evaluated using the CXP Analyses 2.2 Software. The total number of living and dead bacteria was calculated. […]
The ability of the antimicrobial peptides to be used as a therapeutic active ingredient was investigated by reference to its selective antimicrobial properties in model mixed culture experiments. […] Then, the mixed cell cultures were stained and measured by flow cytometry as described in example 3, the measurement scale being adapted to the measurement of the larger eukaryotic cells.

## GRFKRFRKKFKKLFKKLSPVIPLLHLG-OH [BMAP-27]
E. coli ML-35p [1]; 4 μM peptide
  Outer membrane, time to 50% of final signal: <1 min
E. coli ML-35p [1]; 8 μM peptide
  Outer membrane, time to 50% of final signal: <1 min
E. coli ML-35p [1]; 16 μM peptide
  Outer membrane, time to 50% of final signal: <1 min
E. coli ML-35p [1]; 32 μM peptide
  Outer membrane, time to 50% of final signal: <1 min
[2]; U937, complete suppression of cell growth after four days
  Toxicity MTC (minimum toxic concentration): 4.0 µM
E. coli ML-35p [3]; 4 μM peptide
  Inner membrane, time to 50% of final signal: 16 min
E. coli ML-35p [3]; 8 μM peptide
  Inner membrane, time to 50% of final signal: 9 min
E. coli ML-35p [3]; 16 μM peptide
  Inner membrane, time to 50% of final signal: 7 min
E. coli ML-35p [3]; 32 μM peptide
  Inner membrane, time to 50% of final signal: 5 min

## KKKIIIIIIKKK [O1]
Staphylococcus xylosus
  MIC S. xylosus: 0.5 µM
E. coli DH5α
  MIC E. coli: 8 µM
[4]
  Toxicity LD50: >64 µM
Human cell line U937
  Effect on eukaryotic U937 cells in mixed culture: remain uninfluenced
[2]
  Toxicity MTC (minimum toxic concentration): >64 µM
